Among the data in patent US20090042912A1, “DIPHENYLIMIDAZOLYL COMPOUNDS AS INHIBITORS OF beta-SECRETASE” (Wyeth, priority 2004, published 2009) are IC50, inhibition and melting point values, retold here.

A word on the IC50: it is the point on the concentration scale where inhibition reaches its midpoint. As a reminder, the inhibition is the change of the read-out against control, counted positive when it falls. A word on the melting point: it is the temperature, or range, at which the solid turns liquid.

The target of data set [1] is human BACE1 (Homo sapiens, UniProt P56817). The experiment in a line: Fluorescent kinetic assay, inhibition of BACE1 (WABC-6 peptide substrate). It counts as biochemical. The conditions noted are these: 10 nM enzyme, 25 μM substrate, pH 4.5, room temperature; read-out: IC50 (μM) BACE1. The method, then:
Evaluation of the Enzyme Activity of Test Compounds and the Inhibition of hBACE1, MuBACE1 and hBACE2 by Test Compounds
The concentration is determined by absorbance at 354 nm using an extinction coefficient ε of 18172 M^−1cm^−1, The substrate stock is stored in small aliquots at −80° C. [Substrate Stock]=ABS^354 nm*10^6/18172 ([…])
Dilution and mixing steps: total reaction volume: 100 μL • 1. 2× inhibitor dilutions in buffer A (66.7 mM Na-Acetate, pH 4.5, 0.0667% CHAPS) are prepared, • 2. 4× enzyme dilution in buffer A (66.7 mM Na-Acetate, pH 4.5, 0.0667% CHAPS) are prepared, • 3. 100 μM substrate dilution in 1× PBS is prepared, • 4. 50 μL 2× Inhibitor and 25 μL 100 μM substrate are added to each well of 96-well plate (from DYNEX Technologies, VWR #: 11311-046), the immediately 25 μL 4× enzyme are added to the inhibitor and substrate mixer, the fluorescence readings are initiated.
Readings at λex 320 nm and λem 420 nm are taken every 40-sec for 30 min at room temperature to determine the linear slope for substrate cleavage rate (vi).

In data set [2] the target is T1, human BACE2 (Homo sapiens, UniProt Q9Y5Z0).
T1 sequence (Q9Y5Z0 63-518): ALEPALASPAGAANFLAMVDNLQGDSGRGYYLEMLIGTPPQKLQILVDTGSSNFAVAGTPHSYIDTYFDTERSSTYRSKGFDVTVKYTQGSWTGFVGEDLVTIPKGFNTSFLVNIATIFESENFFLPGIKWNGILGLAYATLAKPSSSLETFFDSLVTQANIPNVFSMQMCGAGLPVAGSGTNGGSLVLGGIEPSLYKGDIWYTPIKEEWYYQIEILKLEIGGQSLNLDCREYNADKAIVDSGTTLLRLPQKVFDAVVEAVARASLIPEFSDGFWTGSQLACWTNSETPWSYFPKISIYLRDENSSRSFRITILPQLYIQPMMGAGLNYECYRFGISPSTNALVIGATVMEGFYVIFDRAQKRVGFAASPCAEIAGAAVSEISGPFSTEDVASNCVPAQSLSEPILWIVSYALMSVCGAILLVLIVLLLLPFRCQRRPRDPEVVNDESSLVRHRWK
The experiment in a line: Fluorescent kinetic assay for human recombinant BACE 2 (WABC-6 peptide substrate). In kind it is biochemical. The settings on record: for inhibition at 25 µM: read-out: BACE2. % inhibition; for IC50: 1.5 nM enzyme, 25 μM substrate, pH 4.5, room temperature. The method, then:
Fluorescent Kinetic Assay for Human Recombinant BACE 2
This assay is used to provide kinetic and selectivity parameters for the analyses of the tested compounds.
Temperature: room temperature.
Dilution and Mixing Steps: Total Reaction Volume.: 100 μL • 1.
Readings at λex 320 nm, λem 420 nm are taken every 40-sec for 30 min at room temperature and to determine the linear slope for substrate cleavage rate (vi).

Sequence of human BACE1 (P56817 46-501): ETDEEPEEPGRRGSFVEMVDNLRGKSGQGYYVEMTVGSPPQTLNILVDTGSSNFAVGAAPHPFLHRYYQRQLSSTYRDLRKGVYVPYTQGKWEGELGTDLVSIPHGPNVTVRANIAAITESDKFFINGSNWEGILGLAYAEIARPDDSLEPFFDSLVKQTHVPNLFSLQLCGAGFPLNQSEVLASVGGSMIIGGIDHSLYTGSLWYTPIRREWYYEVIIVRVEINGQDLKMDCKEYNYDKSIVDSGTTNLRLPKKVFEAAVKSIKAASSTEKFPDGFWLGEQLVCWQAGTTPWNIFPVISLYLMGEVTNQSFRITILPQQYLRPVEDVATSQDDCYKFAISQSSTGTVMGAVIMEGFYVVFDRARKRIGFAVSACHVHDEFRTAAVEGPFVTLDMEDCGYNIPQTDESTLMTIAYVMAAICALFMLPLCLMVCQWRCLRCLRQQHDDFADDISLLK

Regarding `NC1=NC(c2ccc(OC(F)(F)F)cc2)(c2ccc(F)c(-c3cccnc3F)c2)C2=NCCCN12` (stereo not drawn) [Example 15, 8-[4-fluoro-3-(2-fluoropyridin-3-yl)phenyl]-8-[4-(trifluoromethoxy)phenyl]-2,3,4,8-tetrahydroimidazo[1,5-a]pyrimidin-6-amine], the melting point fell in the range of 99 to 122 °C. In addition, the IC50 in data set [1] was found to be 0.1 µM. The inhibition at 25 µM in data set [2] is 44%.

`NC1=NC(c2ccc(OC(F)(F)F)cc2)(c2cccc(-c3cncc(F)c3)c2)C2=NCCCN12` (stereo not drawn) [Example 19, 8-[3-(5-fluoropyridin-3-yl)phenyl]-8-[4-(trifluoromethoxy)phenyl]-2,3,4,8-tetrahydroimidazo[1,5-a]pyrimidin-6-amine] displayed a melting point of 112 to 118 °C. The IC50 in data set [1] was 0.08 µM. Further, in data set [2], the half-inhibitory concentration (IC50) amounted to 3.22 µM.

In turn, `NC1=NC(c2ccc(OC(F)(F)F)cc2)(c2cccc(-c3cncc(Cl)c3)c2)C2=NCCCN12` (stereo not drawn) [Example 20, 8-[3-(5-chloropyridin-3-yl)phenyl]-8-[4-(trifluoromethoxy)phenyl]-2,3,4,8-tetrahydroimidazo[1,5-a]pyrimidin-6-amine] registered a melting point of 112 to 116 °C. The IC50 in data set [1] was 0.04 µM. For the same compound, the concentration for half-maximal inhibition (IC50) in data set [2] is 0.54 µM.

Take `COc1ccc(C2(c3cccc(-c4cccnc4F)c3)N=C(N)N3CCCN=C32)cc1` (stereo not drawn) [Example 21, 8-[3-(2-fluoropyridin-3-yl)phenyl]-8-(4-methoxyphenyl]-2,3,4,8-tetrahydroimidazo[1,5-a]pyrimidin-6-amine]: the melting point was in the range of 117 to 121 °C. Besides, the IC50 in data set [1] came to 0.09 µM. The half-maximal inhibitory concentration (IC50) in data set [2] is 6.57 µM.

Consider `COc1ccc(C2(c3ccc(F)c(-c4cncnc4)c3)N=C(N)N3CCCN=C32)cc1` (stereo not drawn) [Example 23, 8-(4-fluoro-3-pyrimidin-5-ylphenyl)-8-(4-methoxyphenyl)-2,3,4,8-tetrahydroimidazo[1,5-a]pyrimidin-6-amine], for which the melting point is 122 °C. Besides, in data set [1], the 50% inhibitory concentration (IC50) came to 0.12 µM. The inhibition at 25 µM in data set [2] stood at 42%.

Turning to `COc1ccc(C2(c3ccc(F)c(-c4cccnc4F)c3)N=C(N)N3CCCN=C32)cc1` (stereo not drawn) [Example 24, 8-[4-fluoro-3-(2-fluoropyridin-3-yl)phenyl]-8-(4-methoxyphenyl)-2,3,4,8-tetrahydroimidazo[1,5-a]pyrimidin-6-amine], the melting point amounted to 115 °C. In addition, the 50% inhibitory concentration (IC50) in data set [1] came to 0.06 µM. Moreover, the IC50 in data set [2] was 8.18 µM.

As to `CCOc1ccc(C2(c3cccc(-c4cccnc4F)c3)N=C(N)N3CCCN=C32)cc1OCC` (stereo not drawn) [Example 25], the melting point lay in the range of 202 to 208 °C. The IC50 in data set [1] was determined as 0.083 µM. The IC50 in data set [2] was determined as 9.87 µM.

`NC1=NC(c2ccc(OC(F)(F)F)cc2)(c2cccc(-c3cc(F)cnc3F)c2)C2=NCCCN12` (stereo not drawn) [Example 28]: the melting point lay within 94 to 102 °C. Moreover, the IC50 in data set [1] was found to be 0.06 µM. Also, in data set [2], the IC50 was found to be 4.68 µM.

Turning to `COCOc1ccc(C2(c3cccc(-c4cccnc4F)c3)N=C(N)N3CCCN=C32)cc1` (stereo not drawn) [Example 38, 8-[3-(2-Fluoro-pyridin-3-yl)-phenyl]-8-(4-methoxymethoxy-phenyl)-2,3,4,8-tetrahydro-imidazo[1,5-a]pyrimidin-6-ylamine], the melting point was 95 to 105 °C. Also, in data set [1], the half-inhibitory concentration (IC50) amounted to 0.093 µM. The inhibition at 15.5 µM in data set [2] (at 15.5 μM) amounted to 47%.

`NC1=NC(c2ccc(OC(F)F)cc2)(c2cccc(-c3cccnc3F)c2)C2=NCCCN12` (stereo not drawn) [Example 41, 8-(4-Difluoromethoxyphenyl)-8-[3-(2-fluoropyridin-3-yl)phenyl]-2,3,4,8-tetrahydroimidazo[1,5-a]pyrimidin-6-ylamine] yielded a melting point of 104 to 114 °C. Further, in data set [1], the IC50 was 0.018 µM. For the same compound, in data set [2], the IC50 worked out at 1.23 µM.
